Consider 33 molecules from patent US20060223996A1, “IL-12 modulatory compounds” (Synta Pharmaceuticals Corp., priority 2004, published 2006).

Structures are written as SMILES.

The subject of this experiment is IL-12. Kind of experiment: Human in vitro assay: inhibition of IL-12 production in IFNγ/LPS- or IFNγ/SAC-stimulated human PBMC or THP-1 cells (ELISA). The format is cell-based. Particulars: read-out: IC50 Range (representative in vitro IC50 data). The essentials:
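PBMC (5×10^5 cells/well) primed with IFNγ 30 U/mL for 22 h then LPS 1 μg/mL, or IFNγ 100 U/mL then SAC 0.01%; THP-1 primed with IFNγ 100 U/mL for 22 h then SAC 0.025%, with compound in 0.25% DMSO. Supernatant IL-12 p70/p40 measured by sandwich ELISA after 18 h; IC50 derived; viability by MTS.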
Background: ELISA stands for enzyme-linked immunosorbent assay.
In the case of `Cc1[nH]c2ccc(NC(=O)c3cc(OCC[N+]4([O-])CCOCC4)nc(N4CCOCC4)n3)cc2c1C` [Compound 27, 2-Morpholin-4-yl-6-[2-(4-oxy-morpholin-4-yl)-ethoxy]-pyrimidine-4-carboxylic acid (2,3-dimethyl-1H-indol-5-yl)-amide], the IC50 (in general, the concentration needed to halve the response being measured) was below 1 µM.

As to `CCc1c(C)[nH]c2ccc(NC(=O)Nc3cc(NCCN4CCOCC4)nc(N4CCOCC4)n3)cc12` [Compound 270, 1-(3-ethyl-2-methyl-1H-indol-5-yl)-3-(2-morpholino-6-(2-morpholinoethylamino)pyrimidin-4-yl)urea], the IC50 is below 1 µM.

For the molecule `Cc1cccc(NC(=O)c2cc(OCCN3CCOCC3)nc(N3CCOCC3)n2)c1` [Compound 56, 2-Morpholin-4-yl-6-(2-morpholin-4-yl-ethoxy)-pyrimidine-4-carboxylic acid m-tolylamide], the IC50 was at least 1 µM.

As to `CC(=O)N[C@H]1CCN(c2cc(C(=O)Nc3ccc4[nH]cc(C)c4c3)nc(N3CCOCC3)n2)C1` [Compound 260, (S)-6-(3-acetamidopyrrolidin-1-yl)-N-(3-methyl-1H-indol-5-yl)-2-morpholinopyrimidine-4-carboxamide], the IC50 is below 1 µM.

Take `O=C(Nc1cccc(-n2cccc2)c1)c1cc(OCCN2CCOCC2)nc(N2CCOCC2)n1` [Compound 285, 2-Morpholin-4-yl-6-(2-morpholin-4-yl-ethoxy)-pyrimidine-4-carboxylic acid (3-pyrrol-1-yl-phenyl)-amide]: the IC50 was below 1 µM.

For the molecule `Cc1[nH]c2ccc(NC(=O)c3cc(OCC(=O)OC(C)(C)C)nc(N4CCOCC4)n3)cc2c1C` [Compound 316, [6-(2,3-Dimethyl-1H-indol-5-ylcarbamoyl)-2-morpholin-4-yl-pyrimidin-4-yloxy]-acetic acid tert-butyl ester], the IC50 is below 1 µM.

On to `O=C(Nc1cccc([N+](=O)[O-])c1)c1cc(OCCN2CCOCC2)nc(N2CCOCC2)n1` [Compound 276, 2-Morpholin-4-yl-6-(2-morpholin-4-yl-ethoxy)-pyrimidine-4-carboxylic acid (3-nitro-phenyl)-amide], for which the IC50 was at least 1 µM.

For `CNc1cccc(NC(=O)c2cc(OCCN3CCOCC3)nc(N3CCOCC3)n2)c1` [Compound 280, 2-Morpholin-4-yl-6-(2-morpholin-4-yl-ethoxy)-pyrimidine-4-carboxylic acid (3-methylamino-phenyl)-amide], the IC50 is below 1 µM.

Turning to `O=C(Nc1cccc(-n2ccnc2)c1)c1cc(OCCN2CCOCC2)nc(N2CCOCC2)n1` [Compound 305, 2-Morpholin-4-yl-6-(2-morpholin-4-yl-ethoxy)-pyrimidine-4-carboxylic acid (3-imidazol-1-yl-phenyl)-amide], the IC50 is at least 1 µM.

Consider `CCn1ccc2ccc(NC(=O)c3cc(OCCN4CCOCC4)nc(N4CCOCC4)n3)cc21` [Compound 220, N-(1-ethyl-1H-indol-6-yl)-2-morpholino-6-(2-morpholinoethoxy)pyrimidine-4-carboxamide], for which the IC50 was below 1 µM.

For `CC(C)N(C)c1cccc(NC(=O)c2cc(OCCN3CCOCC3)nc(N3CCOCC3)n2)c1` [Compound 308, 2-Morpholin-4-yl-6-(2-morpholin-4-yl-ethoxy)-pyrimidine-4-carboxylic acid [3-(isopropyl-methyl-amino)-phenyl]-amide], the IC50 is at least 1 µM.

As to `Cc1cc(C(=O)Nc2nc(OCCc3ccccn3)cc(N3CCOCC3)n2)no1` [Compound 77, 5-Methyl-isoxazole-3-carboxylic acid-[4-morpholin-4-yl-6-(2-pyridin-2-yl-ethoxy)-pyrimidin-2-yl]-amide], the IC50 is at least 1 µM.

With `CCc1cccc(NC(=O)Nc2cc(OCCN3CCOCC3)nc(N3CCOCC3)n2)c1` [Compound 131, 1-(3-Ethyl-phenyl)-3-[2-morpholin-4-yl-6-(2-morpholin-4-yl-ethoxy)-pyrimidin-4-yl]-urea], the IC50 is below 1 µM.

As for `O=C(Nc1cccc(Br)c1)c1cc(OCCN2CCOCC2)nc(N2CCOCC2)n1` [Compound 47, 2-Morpholin-4-yl-6-(2-morpholin-4-yl-ethoxy)-pyrimidine-4-carboxylic acid (3-bromo-phenyl)-amide], the IC50 was at least 1 µM.

As for `Cc1cc(C(=O)Nc2ccc3[nH]c(C)c(C)c3c2)nc(N2CCOCC2)n1` [Compound 253, N-(2,3-dimethyl-1H-indol-5-yl)-6-methyl-2-morpholinopyrimidine-4-carboxamide], the IC50 was below 1 µM.

With `CCCCN(CCCC)c1cc(C(=O)Nc2ccc3[nH]c(C)c(C)c3c2)nc(N2CCOCC2)n1` [Compound 92, 6-Dibutylamino-2-morpholin-4-yl-pyrimidine-4-carboxylic acid (2,3-dimethyl-1H-indol-5-yl)-amide], the IC50 was below 1 µM.

As to `Nc1cccc(NC(=O)Nc2cc(OCCN3CCOCC3)nc(N3CCOCC3)n2)c1` [Compound 324, 1-(3-Amino-phenyl)-3-[2-morpholin-4-yl-6-(2-morpholin-4-yl-ethoxy)-pyrimidin-4-yl]-urea], the IC50 is below 1 µM.

As to `CON(C)c1cc(C(=O)Nc2ccc3[nH]c(C)c(C)c3c2)nc(N2CCOCC2)n1` [Compound 193, N-(2,3-dimethyl-1H-indol-5-yl)-6-(methoxy(methyl)amino)-2-morpholinopyrimidine-4-carboxamide], the IC50 was below 1 µM.

Turning to `COCCN(C)c1cc(C(=O)Nc2nc(C(C)(C)C)cs2)nc(N2CCOCC2)n1` [Compound 201, N-(4-tert-butylthiazol-2-yl)-6-((2-methoxyethyl)(methyl)amino)-2-morpholinopyrimidine-4-carboxamide], the IC50 was at least 1 µM.

For the molecule `CCN(CC)C(=O)COc1cc(C(=O)Nc2ccc3[nH]c(C)c(C)c3c2)nc(N2CCOCC2)n1` [Compound 256, 6-(2-(diethylamino)-2-oxoethoxy)-N-(2,3-dimethyl-1H-indol-5-yl)-2-morpholinopyrimidine-4-carboxamide], the half-maximal inhibitory concentration (IC50) is below 1 µM.

On to `Cc1[nH]c2ccc(NC(=O)c3cc(CN4CCOCC4)nc(N4CCOCC4)n3)cc2c1C` [Compound 259, N-(2,3-dimethyl-1H-indol-5-yl)-2-morpholino-6-(morpholinomethyl)pyrimidine-4-carboxamide], for which the IC50 was below 1 µM.

As to `COCCN(C)c1cc(NC(=O)Nc2ccc3[nH]c(C)c(C)c3c2)nc(N2CCOCC2)n1` [Compound 265, 1-(2,3-dimethyl-1H-indol-5-yl)-3-(6-((2-methoxyethyl)(methyl)amino)-2-morpholinopyrimidin-4-yl)urea], the IC50 was below 1 µM.

For the molecule `O=C(Nc1ccc2[nH]c3c(c2c1)CCCC3)Nc1cc(OCCN2CCOCC2)nc(N2CCOCC2)n1` [Compound 325, 1-[2-Morpholin-4-yl-6-(2-morpholin-4-yl-ethoxy)-pyrimidin-4-yl]-3-(6,7,8,9-tetrahydro-5H-carbazol-3-yl)-urea], the IC50 was below 1 µM.

Turning to `CCc1c(C)[nH]c2ccc(NC(=O)Nc3cc(C)nc(N4CCOCC4)n3)cc12` [Compound 267, 1-(3-ethyl-2-methyl-1H-indol-5-yl)-3-(6-methyl-2-morpholinopyrimidin-4-yl)urea], the IC50 is below 1 µM.

As to `O=C(Nc1cc(OCCN2CCOCC2)nc(N2CCOCC2)n1)Nc1cccc2ncccc12` [Compound 140, 1-[2-Morpholin-4-yl-6-(2-morpholin-4-yl-ethoxy)-pyrimidin-4-yl]-3-quinolin-5-yl-urea], the IC50 is at least 1 µM.

On to `CCc1c(C)[nH]c2ccc(NC(=O)c3cc(N4CCC5(CC4)OCCO5)nc(N4CCOCC4)n3)cc12` [Compound 180, 6-(1,4-Dioxa-8-aza-spiro[4.5]dec-8-yl)-2-morpholin-4-yl-pyrimidine-4-carboxylic acid (3-ethyl-2-methyl-1H-indol-5-yl)-amide], for which the IC50 is below 1 µM.

Take `Cc1ccc(NC(=O)c2cc(OCCN3CCOCC3)nc(N3CCOCC3)n2)cn1` [Compound 297, 2-Morpholin-4-yl-6-(2-morpholin-4-yl-ethoxy)-pyrimidine-4-carboxylic acid (6-methyl-pyridin-3-yl)-amide]: the IC50 is at least 1 µM.

On to `Cn1c(=O)oc2cc(NC(=O)Nc3cc(OCCN4CCOCC4)nc(N4CCOCC4)n3)ccc21` [Compound 134, 1-(3-Methyl-2-oxo-2,3-dihydro-benzooxazol-6-yl)-3-[2-morpholin-4-yl-6-(2-morpholin-4-yl-ethoxy)-pyrimidin-4-yl]-urea], for which the IC50 is at least 1 µM.

As to `COCCN(C)c1cc(C(=O)Nc2cc(C(C)(C)C)ccc2O)nc(N2CCOCC2)n1` [Compound 225, 6-[(2-Methoxy-ethyl)-methyl-amino]-2-morpholin-4-yl-pyrimidine-4-carboxylic acid (5-tert-butyl-2-hydroxy-phenyl)-amide], the IC50 was at least 1 µM.

In the case of `CN1C(=O)C(C)(C)c2cc(NC(=O)c3cc(OCCN4CCOCC4)nc(N4CCOCC4)n3)ccc21` [Compound 219, 2-morpholino-6-(2-morpholinoethoxy)-N-(1,3,3-trimethyl-2-oxoindolin-5-yl)pyrimidine-4-carboxamide], the IC50 is below 1 µM.

For the molecule `COC(=O)CNc1cc(C(=O)Nc2ccc3[nH]c(C)c(C)c3c2)nc(N2CCOCC2)n1` [Compound 97, [6-(2,3-Dimethyl-1H-indol-5-ylcarbamoyl)-2-morpholin-4-yl-pyrimidin-4-ylamino]-acetic acid methyl ester], the IC50 is below 1 µM.

For the molecule `COCCN(C)c1cc(C(=O)Nc2cccc(OC(F)(F)F)c2)nc(N2CCOCC2)n1` [Compound 244, 6-[(2-Methoxy-ethyl)-methyl-amino]-2-morpholin-4-yl-pyrimidine-4-carboxylic acid (3-trifluoromethoxy-phenyl)-amide], the IC50 was at least 1 µM.

Regarding `O=C(Nc1ccc2[nH]c3c(c2c1)CCCC3)c1cc(N2CCC(O)CC2)cc(N2CCOCC2)n1` [Compound 185, 4-Hydroxy-6′-morpholin-4-yl-3,4,5,6-tetrahydro-2H-[1,4′]bipyridinyl-2′-carboxylic acid (6,7,8,9-tetrahydro-5H-carbazol-3-yl)-amide; compound with methanesulfonic acid], the IC50 is below 1 µM.
